Experiment [1] addresses T1, Ribonuclease A (RNase A) (Bos taurus, UniProt P61823).
T1 construct: gene RNASE1
T1 sequence (P61823 27-150): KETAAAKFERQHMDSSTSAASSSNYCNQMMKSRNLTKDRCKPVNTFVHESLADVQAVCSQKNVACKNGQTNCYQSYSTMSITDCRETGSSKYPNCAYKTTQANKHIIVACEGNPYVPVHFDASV
Briefly: direct […]{1H} NMR titration (binding constant Ka). The conditions noted are these: read-out: direct 31P{1H} NMR titration (binding constant Ka) (converted).

For experiment [2], the target named is T1, Ribonuclease A (RNase A). Briefly: […]{1H} NMR competition titration with RNase A·p3A (binding constant Ka). The following applies: read-out: 31P{1H} NMR competition titration with RNase A.p3A (binding constant Ka) (converted).
The target of experiment [3] is T1, Ribonuclease A (RNase A). Nature of the experiment: X-ray cocrystal structure; RNase A inhibition assay (Ki). Type of experiment: biochemical.
In experiment [4] the target is T1, Ribonuclease A (RNase A). Nature of the experiment: X-ray cocrystal structure (soaking); FRET inhibition assay (Ki); […] NMR titration. It counts as biochemical.

Regarding `O=P1(O)OP(=O)(O)OP(=O)(O)OP(=O)(O)O1` [cP4i, tetrametaphosphate], the Kd on Ribonuclease A (RNase A) [1] is 23500 nM.
On to `O=c1ccn([C@@H]2O[C@H](COP(=O)(O)OP(=O)(O)OP(=O)(O)OP(=O)(O)OP(=O)(O)O)[C@@H](O)[C@H]2O)c(=O)[nH]1` [p5U], for which, at Ribonuclease A (RNase A) [2], the Kd was 53.8 nM.
At Ribonuclease A (RNase A) [3], `Nc1ncnc2c1ncn2[C@@H]1O[C@H](COP(=O)(O)OP(=O)(O)OP(=O)(O)OP(=O)(O)OP(=O)(O)OP(=O)(O)O)[C@@H](O)[C@H]1O` [p6A] had an inhibition constant (Ki) of 3600 ± 600 nM.
The molecule `O=c1ccn([C@@H]2O[C@H](COP(=O)(O)OP(=O)(O)OP(=O)(O)OP(=O)(O)OP(=O)(O)OP(=O)(O)O)[C@@H](O)[C@H]2O)c(=O)[nH]1` [p6U] showed a Ki on Ribonuclease A (RNase A) [4] of 1100 ± 200 nM.
In turn, `Nc1ncnc2c1ncn2[C@@H]1O[C@H](COP(=O)(O)OP(=O)(O)OP(=O)(O)OP(=O)(O)OP(=O)(O)OP(=O)(O)OP(=O)(O)O)[C@@H](O)[C@H]1O` [p7A] returned an inhibition constant Ki on Ribonuclease A (RNase A) [3] of 2600 ± 400 nM.
Regarding `O=c1ccn([C@H]2O[C@@H](COP(=O)(O)OP(=O)(O)OP(=O)(O)OP(=O)(O)OP(=O)(O)OP(=O)(O)OP(=O)(O)O)[C@@H](O)[C@H]2O)c(=O)[nH]1` [p7U], the Ki at Ribonuclease A (RNase A) [4] is 1000 ± 200 nM.

The Ki is the dissociation constant of the complex between target and ligand, obtained from inhibition or displacement.

(Values after PMC11273453, “Pentaphosphorylation via the Anhydride of Dihydrogen Pentametaphosphate: Access to Nucleoside Hexa- and Heptaphosphates and Study of Their Interaction with Ribonuclease A” (ACS Central Science, 2024).)
